{"source": "patent US20160166604A1", "about": "“Thiol-Sensitive Positive Inotropes” (priority 2005, published 2016)", "biological_target": "T1, RyR2 (Mus musculus, UniProt E9Q401)", "T1 construct": "endogenous in cells; host or cells: freshly isolated adult mouse cardiac myocytes", "T1 sequence (E9Q401 whole entry)": "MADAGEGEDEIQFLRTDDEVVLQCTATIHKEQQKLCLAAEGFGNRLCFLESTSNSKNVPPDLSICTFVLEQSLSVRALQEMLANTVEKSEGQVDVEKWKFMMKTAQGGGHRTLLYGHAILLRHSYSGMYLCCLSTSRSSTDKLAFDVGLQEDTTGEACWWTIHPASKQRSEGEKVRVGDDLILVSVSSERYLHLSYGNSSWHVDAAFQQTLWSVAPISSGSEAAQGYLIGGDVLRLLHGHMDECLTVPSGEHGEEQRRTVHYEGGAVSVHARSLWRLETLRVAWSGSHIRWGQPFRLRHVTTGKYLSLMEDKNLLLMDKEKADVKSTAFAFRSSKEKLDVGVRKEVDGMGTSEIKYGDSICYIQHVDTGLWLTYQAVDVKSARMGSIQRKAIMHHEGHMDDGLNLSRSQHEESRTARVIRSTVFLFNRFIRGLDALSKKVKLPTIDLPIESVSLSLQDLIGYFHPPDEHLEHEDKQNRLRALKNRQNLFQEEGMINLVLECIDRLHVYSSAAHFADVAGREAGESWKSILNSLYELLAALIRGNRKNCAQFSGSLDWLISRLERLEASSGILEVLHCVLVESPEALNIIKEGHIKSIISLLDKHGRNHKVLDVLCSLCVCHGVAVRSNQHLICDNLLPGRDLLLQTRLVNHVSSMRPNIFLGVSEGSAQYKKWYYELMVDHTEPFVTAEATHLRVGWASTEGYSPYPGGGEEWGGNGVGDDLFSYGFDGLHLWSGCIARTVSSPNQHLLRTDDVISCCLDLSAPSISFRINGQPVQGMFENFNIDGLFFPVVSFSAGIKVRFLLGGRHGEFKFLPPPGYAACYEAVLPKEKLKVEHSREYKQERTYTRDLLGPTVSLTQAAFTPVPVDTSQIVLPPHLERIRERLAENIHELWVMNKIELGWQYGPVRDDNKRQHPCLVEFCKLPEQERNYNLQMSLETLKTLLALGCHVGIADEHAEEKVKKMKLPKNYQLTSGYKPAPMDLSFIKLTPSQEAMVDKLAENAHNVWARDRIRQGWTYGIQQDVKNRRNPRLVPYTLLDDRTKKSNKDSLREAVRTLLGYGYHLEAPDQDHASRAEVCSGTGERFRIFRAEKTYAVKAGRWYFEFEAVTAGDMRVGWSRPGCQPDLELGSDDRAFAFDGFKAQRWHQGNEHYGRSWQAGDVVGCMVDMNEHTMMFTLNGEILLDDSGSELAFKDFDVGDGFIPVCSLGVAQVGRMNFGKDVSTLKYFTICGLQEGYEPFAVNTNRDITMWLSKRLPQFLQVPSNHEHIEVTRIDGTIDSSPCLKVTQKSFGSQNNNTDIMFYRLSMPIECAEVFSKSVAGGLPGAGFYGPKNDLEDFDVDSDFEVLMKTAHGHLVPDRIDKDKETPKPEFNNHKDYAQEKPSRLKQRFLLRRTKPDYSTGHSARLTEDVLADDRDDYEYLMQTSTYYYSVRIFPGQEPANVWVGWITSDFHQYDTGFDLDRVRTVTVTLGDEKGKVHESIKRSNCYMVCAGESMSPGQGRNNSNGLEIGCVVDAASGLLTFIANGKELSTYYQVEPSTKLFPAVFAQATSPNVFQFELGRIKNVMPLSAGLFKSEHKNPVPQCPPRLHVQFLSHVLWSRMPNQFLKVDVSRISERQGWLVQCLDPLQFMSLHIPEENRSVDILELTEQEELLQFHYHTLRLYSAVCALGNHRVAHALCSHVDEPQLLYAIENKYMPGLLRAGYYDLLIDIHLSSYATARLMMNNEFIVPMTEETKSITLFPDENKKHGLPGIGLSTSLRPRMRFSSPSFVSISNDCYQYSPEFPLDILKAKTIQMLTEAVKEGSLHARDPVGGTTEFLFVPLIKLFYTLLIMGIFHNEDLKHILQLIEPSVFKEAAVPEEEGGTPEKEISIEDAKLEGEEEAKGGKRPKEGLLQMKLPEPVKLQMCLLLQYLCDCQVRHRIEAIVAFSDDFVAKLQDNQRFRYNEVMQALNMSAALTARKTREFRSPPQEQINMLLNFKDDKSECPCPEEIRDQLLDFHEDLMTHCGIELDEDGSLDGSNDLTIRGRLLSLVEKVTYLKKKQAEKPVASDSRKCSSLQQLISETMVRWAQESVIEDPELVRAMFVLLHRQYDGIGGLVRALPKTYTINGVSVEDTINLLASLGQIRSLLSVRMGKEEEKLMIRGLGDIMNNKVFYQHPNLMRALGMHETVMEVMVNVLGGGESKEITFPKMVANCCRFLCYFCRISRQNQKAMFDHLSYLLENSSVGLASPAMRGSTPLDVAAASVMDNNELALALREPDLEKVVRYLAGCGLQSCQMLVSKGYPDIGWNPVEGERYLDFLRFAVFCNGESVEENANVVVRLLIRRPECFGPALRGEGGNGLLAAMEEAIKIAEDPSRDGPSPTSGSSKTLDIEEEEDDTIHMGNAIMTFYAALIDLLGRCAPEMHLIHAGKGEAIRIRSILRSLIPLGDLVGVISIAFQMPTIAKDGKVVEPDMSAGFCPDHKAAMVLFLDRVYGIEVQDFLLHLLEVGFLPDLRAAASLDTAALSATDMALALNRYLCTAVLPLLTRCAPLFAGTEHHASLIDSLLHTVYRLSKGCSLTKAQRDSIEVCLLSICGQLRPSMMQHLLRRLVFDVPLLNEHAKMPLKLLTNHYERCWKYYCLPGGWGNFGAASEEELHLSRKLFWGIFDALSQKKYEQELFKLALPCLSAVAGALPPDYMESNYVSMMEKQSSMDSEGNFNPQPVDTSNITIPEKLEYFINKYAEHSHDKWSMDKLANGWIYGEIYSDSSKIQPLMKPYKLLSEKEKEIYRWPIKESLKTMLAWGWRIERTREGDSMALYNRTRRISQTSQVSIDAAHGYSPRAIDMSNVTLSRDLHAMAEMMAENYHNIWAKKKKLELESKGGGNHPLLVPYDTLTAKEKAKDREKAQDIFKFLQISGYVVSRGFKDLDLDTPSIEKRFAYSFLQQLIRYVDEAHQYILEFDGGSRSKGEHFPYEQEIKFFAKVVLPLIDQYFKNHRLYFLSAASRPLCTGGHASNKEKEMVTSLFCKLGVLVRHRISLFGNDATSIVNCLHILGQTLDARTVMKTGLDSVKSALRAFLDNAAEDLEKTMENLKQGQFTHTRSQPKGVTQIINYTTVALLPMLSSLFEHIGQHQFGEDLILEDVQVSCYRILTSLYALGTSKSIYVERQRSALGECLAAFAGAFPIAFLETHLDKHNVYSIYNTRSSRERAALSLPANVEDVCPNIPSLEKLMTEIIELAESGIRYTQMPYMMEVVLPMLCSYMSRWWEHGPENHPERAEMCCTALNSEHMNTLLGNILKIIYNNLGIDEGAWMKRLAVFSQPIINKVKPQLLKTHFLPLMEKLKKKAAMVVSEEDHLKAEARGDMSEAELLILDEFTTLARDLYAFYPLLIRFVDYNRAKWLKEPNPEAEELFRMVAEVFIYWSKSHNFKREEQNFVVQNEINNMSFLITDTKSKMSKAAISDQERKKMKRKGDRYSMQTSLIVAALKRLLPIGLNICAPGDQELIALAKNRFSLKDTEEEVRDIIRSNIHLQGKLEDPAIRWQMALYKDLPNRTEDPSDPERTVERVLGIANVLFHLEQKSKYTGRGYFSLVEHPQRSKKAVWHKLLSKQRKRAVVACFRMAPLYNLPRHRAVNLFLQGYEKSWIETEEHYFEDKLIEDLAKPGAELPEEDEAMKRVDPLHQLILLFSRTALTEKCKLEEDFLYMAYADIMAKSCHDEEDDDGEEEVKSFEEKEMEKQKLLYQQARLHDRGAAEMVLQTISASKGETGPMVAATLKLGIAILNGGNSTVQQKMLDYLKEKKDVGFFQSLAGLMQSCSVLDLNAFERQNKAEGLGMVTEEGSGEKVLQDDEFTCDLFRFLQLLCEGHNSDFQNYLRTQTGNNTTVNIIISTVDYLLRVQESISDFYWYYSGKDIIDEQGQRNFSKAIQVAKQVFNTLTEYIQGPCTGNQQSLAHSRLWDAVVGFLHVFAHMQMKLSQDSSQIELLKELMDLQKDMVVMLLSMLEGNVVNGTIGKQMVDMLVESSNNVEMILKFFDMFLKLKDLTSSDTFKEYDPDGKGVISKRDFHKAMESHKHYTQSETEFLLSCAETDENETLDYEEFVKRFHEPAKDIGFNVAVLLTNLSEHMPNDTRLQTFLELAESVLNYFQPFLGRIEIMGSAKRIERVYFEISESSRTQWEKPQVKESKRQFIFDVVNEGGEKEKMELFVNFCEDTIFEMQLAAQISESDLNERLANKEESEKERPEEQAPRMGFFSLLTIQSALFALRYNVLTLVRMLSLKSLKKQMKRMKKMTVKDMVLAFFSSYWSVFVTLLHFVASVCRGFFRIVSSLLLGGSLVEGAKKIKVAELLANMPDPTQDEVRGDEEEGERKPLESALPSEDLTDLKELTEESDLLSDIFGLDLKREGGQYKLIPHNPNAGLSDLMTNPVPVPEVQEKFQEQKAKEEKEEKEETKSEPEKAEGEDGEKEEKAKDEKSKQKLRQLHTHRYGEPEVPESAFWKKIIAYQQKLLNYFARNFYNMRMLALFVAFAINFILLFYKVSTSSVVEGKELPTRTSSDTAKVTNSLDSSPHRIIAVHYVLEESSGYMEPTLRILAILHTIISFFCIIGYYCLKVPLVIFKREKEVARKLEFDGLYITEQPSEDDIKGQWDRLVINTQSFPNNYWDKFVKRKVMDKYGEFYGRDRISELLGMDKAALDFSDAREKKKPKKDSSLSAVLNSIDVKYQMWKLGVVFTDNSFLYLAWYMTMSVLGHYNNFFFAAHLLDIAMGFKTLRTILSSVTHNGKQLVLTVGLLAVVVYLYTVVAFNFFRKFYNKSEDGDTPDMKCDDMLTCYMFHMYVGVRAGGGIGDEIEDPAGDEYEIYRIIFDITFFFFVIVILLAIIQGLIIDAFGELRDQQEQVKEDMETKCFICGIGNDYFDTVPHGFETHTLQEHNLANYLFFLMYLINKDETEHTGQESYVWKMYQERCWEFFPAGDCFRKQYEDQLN", "experiment": "RyR2 single channel recordings in planar lipid bilayers", "assay_type": "biochemical", "settings": "for open probability of the channel (Po): control 0.16±0.03", "experimental": "Recording of single RyR2 in lipid bilayers was performed as previously described. Jiang, M. T. et al., Circ. Res., 91, 1015-1022 (2002). Briefly, a phospholipid bilayer of PE:PS (1:1 dissolved in n-decane to 20 mg/ml) was formed across an aperture of ˜300 μm diameter in a delrin cup. The cis chamber (900 μl) was the voltage control side connected to the head stage of a 200 A Axopatch amplifier, while the trans chamber (800 μl) was held at virtual ground. Both chambers were initially filled with 50 mM cesium methanesulfonate and 10 mM Tris/Hepes pH 7.2. After bilayer formation, cesium methanesulfonate was raised to 300 mM in the cis side and 100 to 200 μg of mouse cardiac SR vesicles was added. After detection of channel openings, Cs^+ in the trans chamber was raised to 300 mM to collapse the chemical gradient. Single channel data were collected at steady voltages (−30 mV) for 2-5 min. Channel activity was recorded with a 16-bit VCR-based acquisition and storage system at a 10 kHz sampling rate. Signals were analyzed after filtering with an 8-pole Bessel filter at a sampling frequency of 1.5-2 kHz. Data acquisition and analysis were done with Axon Instruments software and hardware (pClamp v8.0, Digidata 200 AD/DA interface).\nTo further test whether HNO directly interacted with RyR2 proteins to increase open probability, purified reconstituted RyR2 were expressed in planar lipid bilayers and steady-state activity recorded with or without AS. The cis (cytosolic) solution contained 10 μM activating Ca^2+ and recordings were made at positive 30 mV holding potential. […] The probability of the channel being open (Po) increased from an average 0.16±0.03 without AS to 0.46±0.07 at 0.3 mM AS added to the cytoplasmic side of the channel (n=4). This was reversible upon addition of 2 mM DTT (0.11±0.04). These findings support direct HNO-RyR2 interaction likely via a reversible reaction with thiol groups in the protein.", "data": [{"compound": "[Na+].[Na+].[O-][N+]([O-])=NO", "note": "[AS, Angeli's salt]", "values": [{"measurement": "open probability of the channel (Po)", "setting": "0.1 mM AS, cis side", "value": "0.25±0.05"}, {"measurement": "open probability of the channel (Po)", "setting": "0.3 mM AS, cytoplasmic side", "value": "0.46±0.07"}, {"measurement": "open probability of the channel (Po)", "setting": "1.0 mM AS, cis side", "value": "0.69±0.11"}, {"measurement": "Po of AS-activated channels after DTT", "setting": "2 mM DTT added to cis side", "value": "0.11±0.04"}, {"measurement": "unitary channel conductance", "setting": "AS 0.1 to 1 mM", "value": "without altering"}]}]}
